Measured values reported in patent publication US5900406A, “Use of antibiotics of the type 2-deoxystreptamine substituted with aminosugars to inhibit growth of microorganisms containing group I introns” (NZYM, Inc., priority 1991, dated 1999).

How the values were obtained:
[1] = tested on: td intron (group I intron of the thymidylate synthase gene of phage T4, truncated version); details: td intron self-splicing; read-out: Michaelis constant (Km) for GTP; cited from earlier work
[2] = tested on: td intron (group I intron of the thymidylate synthase gene of phage T4, truncated version); format: biochemical
Experimental: In vitro-transcribed and gel-purified^8 preRNA from a truncated version of the td intron^21 was incubated in a splicing buffer (50 mM Tris-HCl, pH 7.5, 5 mM MgCl2, 0.4 mM spermidine) for 10 min at 37° C. with GTP and gentamicin as indicated. Samples were separated on 5% acrylamide/7 M urea gels. RNA species are as follows: In-E2, intron-exon 2; L-ln, linear intron; E1-E2, ligated exons; E1, exon 1.
FIGS. 3a-c, Splicing experiments were done with the td intron as described in FIG. 2a, using several members of each family of aminoglycoside antibiotics (gentamicin, kanamycin and neomycin). Structures of the antibiotics can be found in Davies and Yagisaura in Biochemistry and Genetic Function Of Commercially Important Antibiotics, p. 329-354, Addison-Wesley, London, (1983) "Conc" is the antibiotic concentration at which about 50% inhibition was observed.
To monitor the splice process in vitro precursor RNA containing exon1, intron and exon2 was synthesized by in vitro transcription using bacteriophage RNA polymerase. During transcription, a radioactive labeled nucleotide was present in the nucleotide mixture and was incorporated in the RNA. This radioactive labeled RNA was then subjected to splicing conditions and after reaction the RNA splice products were separated from each other by electrophoresis on a denaturing acrylamide gel. The gel was dried and exposed for autoradiography.
Unspliced precursor RNA from the thymidylate synthase gene of the phage T4, which had been transcribed in vitro, and purified as previously described, (Schroeder, R., von Ahsen, U. & Belfort, M. Biochemistry 30, 3295-3303 (1991)) was incubated with increasing amounts of gentamicin under normal splicing conditions.
(§1) Materials and Methods: In vitro splicing experiments were performed with a truncated version of the td gene, containing 79 nt of exon I, 265 nt of intron sequences containing only the catalytic core (delta P6-2) and 21 nt of exon H (Schroeder, von Ahsen, & Belfort, 199 1, Biochemistry 30, 3295). The plasmids containing the Tetrahymena rRNA intron and the yeast mitochondrial cob intron I (the group II intron) were pBGST7 (Been & Cech, 1986, Cell 47, 207) and pBSbIl (Schmelzer and Schweyen, 1986, Cell 46, 557), respectively. The sunY intron is described in Michel et al. (1990, Genes & Development 4, 777). DNA was prepared by the alkaline-lysis procedure and linearized with appropriate restriction enzymes. Transcription was performed in a total volume of 20 μl at 30° C. for one (1) hour in buffer containing 40 mM Tris-HCl pH 7.5, 3 mM MgCl2, 0.4 mM spermidine, 1 mM of each NTP, 5 mM […], 10 units T7 RNA polymerase (Boehringer Mannheim), 10 μCi alpha-^35 S-CTP and 10 units RNAse inhibitor (Boehringer Mannheim). The reaction mixture was loaded on a 5% polyacrylamide/7 M urea gel. Precursor RNA was cut out of the gel and soaked in 400 μl elution buffer (10 mM Tris-HCl pH 7.5, 10 mM EDTA, 3.5 M NH4 OAc, 0.1% SDS) for two hours. After ethanol precipitation, the RNA was dissolved in H2 O-- before splicing experiments were performed the RNA was incubated in splicing buffer (40 mM Tris-HCl pH 7.5, 8 mM MgCl2, 0.4 mM spermidine) for 2 min at 56° C. For splicing of the suny intron and the Tetrahymena intron 50 mM NH4 Cl or 200 mM NaCl were added, respectively. Splicing was initiated by addition of guanosine at the appropriate concentration at 37° C. When splicing was to be inhibited by antibiotic, the antibiotic was added immediately before the guanosine. Splicing reactions were performed at 37° C. for 10'.

[3] = tested on: group II bI1 intron (first intron of the yeast mitochondrial apocytochrome b gene); assay: In vitro splicing of a group II intron in the presence of aminoglycosides; format: biochemical; details: concentrations ≤5 mM
Experimental: FIG. 2c, Precursor -A of the group II bli intron (first intron of the yeast mitochondrial apocytochrome b gene) was incubated in a splicing buffer (40 mM Tris-HCl, pH 7.5, 60 mM MgCl2, 625 mM (NH4)2 SO4, 2 mM spermidine) at 42° C. for 60 min with increasing amounts of gentamicin as indicated. Splicing products were separated as in FIG. 2 A. C is an unincubated control.
(§2) Materials and Methods: In vitro splicing experiments were performed with a truncated version of the td gene, containing 79 nt of exon I, 265 nt of intron sequences containing only the catalytic core (delta P6-2) and 21 nt of exon H (Schroeder, von Ahsen, & Belfort, 199 1, Biochemistry 30, 3295). The plasmids containing the Tetrahymena rRNA intron and the yeast mitochondrial cob intron I (the group II intron) were pBGST7 (Been & Cech, 1986, Cell 47, 207) and pBSbIl (Schmelzer and Schweyen, 1986, Cell 46, 557), respectively. The sunY intron is described in Michel et al. (1990, Genes & Development 4, 777). DNA was prepared by the alkaline-lysis procedure and linearized with appropriate restriction enzymes. Transcription was performed in a total volume of 20 μl at 30° C. for one (1) hour in buffer containing 40 mM Tris-HCl pH 7.5, 3 mM MgCl2, 0.4 mM spermidine, 1 mM of each NTP, 5 mM DTIC, 10 units T7 RNA polymerase (Boehringer Mannheim), 10 μCi alpha-^35 S-CTP and 10 units RNAse inhibitor (Boehringer Mannheim). […]

[4] = tested on: sunY intron (shortened version, construct SYC1.3); assay: In vitro splicing inhibition of the sunY group I intron (GTP incorporation assay); format: biochemical, T4-phage
Experimental: as §1, with “DNA” for “Materials and Methods: In vitro splicing experiments were performed with a truncated version of the td gene, containing 79 nt of exon I, 265 nt of intron sequences containing only the catalytic core (delta P6-2) and 21 nt of exon H (Schroeder, von Ahsen, & Belfort, 199 1, Biochemistry 30, 3295). The plasmids containing the Tetrahymena rRNA intron and the yeast mitochondrial cob intron I (the group II intron) were pBGST7 (Been & Cech, 1986, Cell 47, 207) and pBSbIl (Schmelzer and Schweyen, 1986, Cell 46, 557), respectively. The sunY intron is described in Michel et al. (1990, Genes & Development 4, 777). DNA”, “10'. […] Samples were separated on 5% acrylamide/7 M urea gels.” for “10'.”

[5] = tested on: group I intron from the ribosomal RNA from Tetrahymena thermophila; assay: In vitro splicing inhibition of the Tetrahymena rRNA group I intron; format: biochemical; details: read-out: concentration giving 50% inhibition of splicing
Experimental: To see whether this inhibition could be extended to all group I introns, the group I intron from the ribosomal RNA from Tetrahymena thermophila was tested for sensitivity towards gentamicin and again the splice reaction was inhibited. To test the specificity of this interaction of gentamicin with this type of catalytic RNA […]
as §2, with “enzymes.” for “enzymes. Transcription was performed in a total volume of 20 μl at 30° C. for one (1) hour in buffer containing 40 mM Tris-HCl pH 7.5, 3 mM MgCl2, 0.4 mM spermidine, 1 mM of each NTP, 5 mM DTIC, 10 units T7 RNA polymerase (Boehringer Mannheim), 10 μCi alpha-^35 S-CTP and 10 units RNAse inhibitor (Boehringer Mannheim).”

Molecule	Km [1] [µM]	lowest concentration with splicing inhibition activity ([2]; activity at a concentration as low as) [µM]	antibiotic concentration affecting the first step of splicing ([2]; first step affected only at this concentration) [µM]	IC50 ([2]; in vitro splicing, 37° C., 10 min, read-out: concentration giving approximately 50% inhibition of the second splice step of the td intron) [µM]	inhibition of splicing of the group II intron [3]	concentration to which the sunY intron is sensitive [4] [µM]	concentration at which the second step (cleavage at the 3' splice-site and exon ligation) is completely inhibited ([2]; GTP 2.5 μM or 100 μM) [µM]	effect on the first step of splicing ([2]; concentrations ≤2 mM, whatever the guanosine concentration)	IC50 [5] [µM]
Nc1nc2c(ncn2[C@@H]2O[C@H](COP(=O)(O)OP(=O)(O)OP(=O)(O)O)[C@@H](O)[C@H]2O)c(=O)[nH]1 [GTP]	1	–	–	–	–	–	–	–	–
NC[C@H]1O[C@H](O[C@H]2[C@H](O)[C@@H](O[C@H]3O[C@H](CO)[C@@H](O)[C@H](N)[C@H]3O)[C@H](N)C[C@@H]2N)[C@H](N)C[C@@H]1O [Tobramycin]	–	0.5	100	~0.5	not inhibited	–	–	–	–
gentamicin	–	–	–	–	not inhibited	100	2.5	little effect	~100
